The structures appear in SMILES notation. Structures can show the parent of a compound that is named as a salt. Where two headings read alike, the source gives them in different places.

The test system of this test is mixed inoculum of bacteria. Nature of the test: MIC and synergy (K) in nutrient broth, microtiter plates. It counts as cell-based. How it is done: Stock solutions of each product were prepared in sterile distilled water. Synergism was measured by the method first described by F. C. Kull, P. C. Eisman, H. D. Sylwestrowicz and R. L. Mayer in Applied Microbiology, 9, 538-41 ([…]). This manner of determining synergism has been widely used and is industrially acceptable. It is believed that the specified method is sufficient in explaining the process. However for a further description, reference can be made to U.S. Pat. No. 3,231,509 and its file history, where this type of data was considered acceptable.
• 1. Incubator capable of maintaining a variable temperature range (25-45 C) • 2. Samples of each biocide or test compound to be examined • 3. Microtiter plates—96 well with lid, sterile. • 4. 8-12 channel micropipetting device capable of pipetting 0-250 ul volumes • 5. Micropipette tips capable of holding up to 250 ul volumes • 6. Sterile microbiological culture broth. Trypticase Soy Broth (TSB) or Nutrient Broth (NB) is recommended for bacteria and Sabouraud Maltose Broth (SMB) or Sabouraud Dextrose Broth (SDB) is recommended for yeasts and molds. In the case of this particular study the microbiological culture medium was Nutrient Broth at pH 7.0, 8.0 and 9.0. • 7. Pure cultures of microorganisms of choice grown on appropriate agar medium • 8. Sterile distilled water • 9. 100 mL volumetric flasks (one for each biocide to be tested) • 10. Sterile 10 mL tubes of Phosphate buffer (Butterfield's buffer pH 7.2+/−0.2). Contains purified water, monobasic potassium phosphate and sodium hydroxide for pH adjustment. • 11. Sterile cotton swabs • 12. 0.5 MacFarland Turbidity Standard
The day before testing, perform a streak plate of each organism to be tested on an appropriate agar medium (Trypticase Soy Agar). Organisms tested in this study were: Wild strain bacteria isolated from previously contaminated industrial systems and which were identified as: Pseudomonas sp., Escherchia coli , Enterobacter sp., Alcaligenes sp. and Alcaligenes faecalis. On the day of the test, use a sterile cotton swab to harvest some of the growth. Place swab into a tube containing 10 mL sterile phosphate buffer. Compare and adjust the turbidity of the organisms in the tube to 1×10^8 cfu/mL using a 0.5 MacFarland Turbidity Standard. Dilute the 10 mL tube into 90 mL of sterile 2× nutrient broth at pH 7.0, 8.0 and 9.0.
1. Design the layout of the microtiter plates based on the number of organisms to test and the number of biocides and desired concentrations to test. A separate microtiter plate is required for testing each biocide alone, in addition to the combination microtiter plate. 2. Prepare a working stock solution of each biocide to be tested. For the combination microtiter plate, the working stock solution of Biocide A will be 8× the concentration desired in the first well of the combination microtiter plate. The working stock solution of Biocide B will be 4× the concentration desired in the first well of the combination microtiter plate. For the alone microtiter plates, the working stock solutions of Biocide A and Biocide B will both be 4× the concentration desired in the first well of the single biocide microtiter plates.
Dodecylguanidine hydrochloride: (For combination plates) A solution of this product which is 35% active, was made as follows: […]=8000 ppm active=8000/0.35=22,857 ppm, 2.28 g into 100 mL sterile diH2O. Levels to test are: 1000 ppm, 500 ppm, 250 ppm, 125 ppm, 62.5 ppm, 31.2 ppm, 15.6 ppm, 7.8 ppm, 3.9 ppm, 1.95 ppm
Ortho-PhenylPhenol: (For combination plates) Make a solution of this product which is 99% active, 4×125=500 ppm active=500/0.99=505 ppm, 0.05 g into 100 mL MeOH and sterile diH2O. Level to test is 125 ppm.
3. Place 50 ul of sterile distilled water in all of the rows in columns 1 through 10, and 100 ul of sterile distilled water in all of the rows in columns 11 and 12 of the 96 well combination microtiter plate. […]

As to `CCCCCCCCCCCCNC(=N)N` [DGH, Dodecylguanidine Hydrochloride], the MIC (pH 7, read-out: MIC, biocide alone) was determined as 62.5 mg/L; the MIC (pH 8, read-out: MIC, biocide alone) is 15.6 mg/L; the MIC (pH 9, read-out: MIC, biocide alone) was determined as 15.6 mg/L. The “Synergy Index” value (pH 7.0, 62.5 ppm DGH alone (100:0)) is given as 1.00; the “Synergy Index” value (pH 8.0, 15.6 ppm DGH alone (100:0)) is reported as 1.00; the “Synergy Index” value (pH 9.0, 15.6 ppm DGH alone (100:0)) turned out to be 1.00.

The values are drawn from patent publication US20100160445A1, “Synergistic Mixtures of OPP and DGH” (priority 2002, published 2010).
